Molecular target: Receptor tyrosine-protein kinase erbB-2 (Homo sapiens, UniProt P04626)
Test: Inhibition of autophosphorylation of HER-2 expressed in NIH3T3 cell lines
Assay type: cell-based

Receptor tyrosine-protein kinase erbB-2, sequence (P04626 whole entry): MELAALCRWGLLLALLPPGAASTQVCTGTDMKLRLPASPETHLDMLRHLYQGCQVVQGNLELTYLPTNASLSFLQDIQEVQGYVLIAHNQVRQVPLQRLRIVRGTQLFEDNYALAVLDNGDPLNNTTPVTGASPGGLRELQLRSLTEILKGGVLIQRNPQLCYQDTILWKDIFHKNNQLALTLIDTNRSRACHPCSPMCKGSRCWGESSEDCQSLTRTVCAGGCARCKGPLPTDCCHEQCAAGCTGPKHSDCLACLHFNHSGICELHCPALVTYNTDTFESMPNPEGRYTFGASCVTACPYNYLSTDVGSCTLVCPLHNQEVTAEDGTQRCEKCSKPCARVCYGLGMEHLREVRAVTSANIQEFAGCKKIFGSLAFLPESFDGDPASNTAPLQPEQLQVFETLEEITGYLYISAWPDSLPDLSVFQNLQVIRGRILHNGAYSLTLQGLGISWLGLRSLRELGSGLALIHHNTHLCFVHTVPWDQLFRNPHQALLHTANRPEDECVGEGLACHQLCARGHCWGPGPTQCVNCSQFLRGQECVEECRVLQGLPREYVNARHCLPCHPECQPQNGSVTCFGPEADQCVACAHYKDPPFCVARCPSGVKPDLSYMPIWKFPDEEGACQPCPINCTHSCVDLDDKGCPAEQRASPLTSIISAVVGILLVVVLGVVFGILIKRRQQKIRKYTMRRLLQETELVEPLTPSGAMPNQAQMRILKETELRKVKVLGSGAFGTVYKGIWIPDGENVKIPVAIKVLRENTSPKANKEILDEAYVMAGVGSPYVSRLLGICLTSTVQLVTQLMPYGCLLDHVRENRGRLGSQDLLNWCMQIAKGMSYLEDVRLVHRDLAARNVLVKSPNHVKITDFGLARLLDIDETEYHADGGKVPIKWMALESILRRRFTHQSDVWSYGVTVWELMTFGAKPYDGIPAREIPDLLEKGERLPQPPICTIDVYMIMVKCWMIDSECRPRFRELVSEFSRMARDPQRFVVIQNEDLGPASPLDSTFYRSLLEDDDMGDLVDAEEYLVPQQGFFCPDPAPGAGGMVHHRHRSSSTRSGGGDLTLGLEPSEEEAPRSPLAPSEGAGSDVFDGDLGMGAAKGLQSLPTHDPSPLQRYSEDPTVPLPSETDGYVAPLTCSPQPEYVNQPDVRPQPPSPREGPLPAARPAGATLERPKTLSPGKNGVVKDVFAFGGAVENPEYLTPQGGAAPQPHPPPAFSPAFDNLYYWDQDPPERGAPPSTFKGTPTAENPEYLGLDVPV

IC50	SMILES
4.4 µM	O=C(CCCC(=O)Oc1ccc(/C=C/[N+](=O)[O-])cc1)Oc1ccccc1
4.5 µM	CC(C)O[C@@H]1[C@H](OC(C)C)[C@@H](COC(=O)CCCC(=O)Oc2ccc(/C=C/[N+](=O)[O-])cc2)O[C@H]1n1cnc2c(N)ncnc21
3.8 µM	O=C(CCCC(=O)Oc1ccc(/C=C/[N+](=O)[O-])cc1)OCc1ccco1
6.6 µM	COc1ccc(OC(=O)CCCC(=O)Oc2ccc(/C=C/[N+](=O)[O-])cc2)cc1

Source: ChEMBL document CHEMBL1130506, “Inhibition of the her2 tyrosine kinase and characterization of a hydrophobic site near the nucleotide binding domain” (Bioorg Med Chem Lett, 1997)
